Values joined by “and” are separate entries in the source; they are usually repeats but may differ in a detail not shown here. Equal entries are not always repeated.
Assays:
Format in all cases: physicochemical
[1] = Chemical stability on storage: assay and impurities
Experimental: (§1) Samples of Example 2 and additional samples comprising micronized and non-micronized oxycodone useful for exemplary dosage forms are tested for their chemical stability and physical stability. Based on a comparison of stability data from micronized and non-micronized samples stored at both 25° C./60% RH and 40 C.°/75% RH, no differences are observed in the impurity profile through three months of study as shown in Tables 4 and 5 for exemplary lots. The impurities analyzed include (HOXY), 14-Hydroxycodeinone; (DHOXYN), 7,8-Dihydro-8,14-Dihydroxycodeinone; (DHOXY), 7,8-Dihydro-14-hydroxycodeine; (OXYE), Oxycodone ethylenolate; (OXYN), 1-Hydroxyoxycodone and Oxycodone N-oxide. Most of the impurities are found to be below the limit of quantitation (LOQ), except for HOXY and DHOXYN which were unchanged at 0.1%. […] The solid state stability of the micronized oxycodone is monitored for particle size, XRPD, DSC, and microscopy as shown in Table 6.

[2] = Physical stability on storage: particle size (Dv90) by laser diffraction
[3] = Physical stability on storage: DSC onset melt
Experimental: The micronized lots may also be analyzed by Differential Scanning Calorimetry (DSC). DSC is performed on a TA instrument Q100 using a heating ramp from 25-235° C. at a rate of 5° C./min. […] The sharp endotherm observed is consistent with a crystalline material and the absence of other thermal events proves that there were no polymorph transformations during melting.
as §1

[4] = Physical stability on storage: microscopy
Experimental: (§2) As a secondary analytical method, the micronized and the non-micronized oxycodone analyzed by laser diffraction with results shown in Table 1, were analyzed by optical microscopy to evaluate particle size and the results are shown in Table 2. Sample aliquots (˜50 mg for micronized and ˜225 mg for non-micronized) were dispersed in 10 ml of sunflower oil and viewed on a Nikon microscope equipped with a 10× objective. Particle size (mean diameter) was determined using Image Pro® Plus software and expressed as a number % undersize. The particle size values determined by optical microscopy as shown in Table 2 are consistent with the laser diffraction particle size data shown in Table 1.
as §1

[5] = Particle size distribution by laser diffraction (Malvern Mastersizer 2000), oxycodone base
[6] = Particle size by optical microscopy, number % undersize; details: mean diameter
Experimental: as §2

[7] = Table 1 analysis, lot 2 in duplicate
[8] = additional laser diffraction analysis, Table 3

Compound: COc1ccc2c3c1O[C@H]1C(=O)CC[C@@]4(O)[C@@H](C2)N(C)CC[C@]314 [Lot 3, oxycodone]
- 1-HydroxyOXY ([1]; 5° C./60% RH, 1 mo (Table 4)): <LOQ
- 1-HydroxyOXY ([1]; 5° C./60% RH, 3 mo (Table 4)): <LOQ
- Assay ([1]; 25° C./60% RH, 1 mo): 98.5%
- DHOXY (7,8-Dihydro-14-hydroxycodeine) ([1]; 25° C./60% RH, 1 mo): <LOQ
- DHOXYN (7,8-Dihydro-8,14-Dihydroxycodeinone) ([1]; 25° C./60% RH, 1 mo): 0.10%
- HOXY (14-Hydroxycodeinone) ([1]; 25° C./60% RH, 1 mo): 0.08%
- OXYE (Oxycodone ethylenolate) ([1]; 25° C./60% RH, 1 mo): <LOQ
- OXYN ([1]; 25° C./60% RH, 1 mo): <LOQ
- Other (impurities; Table 5: >0.05%) ([1]; 25° C./60% RH, 1 mo): <LOQ
- Total impurities ([1]; 25° C./60% RH, 1 mo): 0.18%
- Assay ([1]; 25° C./60% RH, 3 mo): 98.5%
- DHOXY (7,8-Dihydro-14-hydroxycodeine) ([1]; 25° C./60% RH, 3 mo): <LOQ
- DHOXYN (7,8-Dihydro-8,14-Dihydroxycodeinone) ([1]; 25° C./60% RH, 3 mo): 0.10%
- HOXY (14-Hydroxycodeinone) ([1]; 25° C./60% RH, 3 mo): 0.08%
- OXYE (Oxycodone ethylenolate) ([1]; 25° C./60% RH, 3 mo): <LOQ
- OXYN ([1]; 25° C./60% RH, 3 mo): <LOQ
- Other (impurities; Table 5: >0.05%) ([1]; 25° C./60% RH, 3 mo): <LOQ
- Total impurities ([1]; 25° C./60% RH, 3 mo): 0.18%
- 1-HydroxyOXY ([1]; 40° C./75% RH, 1 mo): <LOQ
- Assay ([1]; 40° C./75% RH, 1 mo): 100.1%
- DHOXY (7,8-Dihydro-14-hydroxycodeine) ([1]; 40° C./75% RH, 1 mo): <LOQ
- DHOXYN (7,8-Dihydro-8,14-Dihydroxycodeinone) ([1]; 40° C./75% RH, 1 mo): 0.10%
- HOXY (14-Hydroxycodeinone) ([1]; 40° C./75% RH, 1 mo): 0.08%
- OXYE (Oxycodone ethylenolate) ([1]; 40° C./75% RH, 1 mo): <LOQ
- OXYN ([1]; 40° C./75% RH, 1 mo): <LOQ
- Other (impurities; Table 5: >0.05%) ([1]; 40° C./75% RH, 1 mo): <LOQ
- Total impurities ([1]; 40° C./75% RH, 1 mo): 0.18%
- 1-HydroxyOXY ([1]; 40° C./75% RH, 3 mo): <LOQ
- Assay ([1]; 40° C./75% RH, 3 mo): 99.5%
- DHOXY (7,8-Dihydro-14-hydroxycodeine) ([1]; 40° C./75% RH, 3 mo): <LOQ
- DHOXYN (7,8-Dihydro-8,14-Dihydroxycodeinone) ([1]; 40° C./75% RH, 3 mo): 0.10%
- HOXY (14-Hydroxycodeinone) ([1]; 40° C./75% RH, 3 mo): 0.08%
- OXYE (Oxycodone ethylenolate) ([1]; 40° C./75% RH, 3 mo): <LOQ
- OXYN ([1]; 40° C./75% RH, 3 mo): <LOQ
- Other (impurities; Table 5: >0.05%) ([1]; 40° C./75% RH, 3 mo): <LOQ
- Total impurities ([1]; 40° C./75% RH, 3 mo): 0.18%
- 1-HydroxyOXY ([1]; Time 0): <LOQ
- Assay ([1]; Time 0): 100.4%
- DHOXY (7,8-Dihydro-14-hydroxycodeine) ([1]; Time 0): <LOQ
- DHOXYN (7,8-Dihydro-8,14-Dihydroxycodeinone) ([1]; Time 0): 0.11%
- HOXY (14-Hydroxycodeinone) ([1]; Time 0): 0.07%
- OXYE (Oxycodone ethylenolate) ([1]; Time 0): <LOQ
- OXYN ([1]; Time 0): <LOQ
- Other (impurities; Table 5: >0.05%) ([1]; Time 0): <LOQ
- Total impurities ([1]; Time 0): 0.18%
- Particle size (Dv90) ([2]; 25° C./60% RH, 1 month): 9 μ
- Particle size (Dv90) ([2]; 25° C./60% RH, 3 months): 10 μ
- Particle size (Dv90) ([2]; 25° C./60% RH, 6 months): 10 μ
- Particle size (Dv90) ([2]; 25° C./60% RH, 9 months): 8 μ
- Particle size (Dv90) ([2]; 25° C./60% RH, 12 months): 8 μ
- Particle size (Dv90) ([2]; 40° C./75% RH, 1 month): 9 μ
- Particle size (Dv90) ([2]; 40° C./75% RH, 3 months): 11 μ
- Particle size (Dv90) ([2]; 40° C./75% RH, 6 months): 10 μ
- Particle size (Dv90) ([2]; Time 0): 6 μ
- DSC Onset Melt ([3]; 25° C./60% RH, 3 mo): 221.9 °C
- DSC Onset Melt ([3]; 40° C./75% RH, 3 mo): 221.9 °C
- Microscopy, ≦10 μ ([4]; 25° C./60% RH, 3 mo): 98.3%
- Microscopy, ≦10 μ ([4]; 40° C./75% RH, 3 mo): 94.5%

Compound: COc1ccc2c3c1O[C@H]1C(=O)CC[C@@]4(O)[C@@H](C2)N(C)CC[C@]314 [Lot 2, oxycodone]
- Particle size (Dv10) [5, 7]: 0.5, 0.5 μ
- Particle size (Dv50) [5, 7]: 1.5 μ and 2.2 μ
- Particle size (Dv90) [5, 7]: 3.1 μ and 5.1 μ
- Particle size (Dv10) [5, 8]: 0.6 μ
- Particle size (Dv50) [5, 8]: 2.1 μ
- Particle size (Dv90) [5, 8]: 5.8 μ
- % ≦ 1μ [6]: 25.3%
- % ≦ 5μ [6]: 92.2%
- % ≦ 10μ [6]: 99.5%
- 1-HydroxyOXY ([1]; 5° C./60% RH, 1 mo (Table 4)): <LOQ
- 1-HydroxyOXY ([1]; 5° C./60% RH, 3 mo (Table 4)): <LOQ
- Assay ([1]; 25° C./60% RH, 1 mo): 99.8%
- DHOXY (7,8-Dihydro-14-hydroxycodeine) ([1]; 25° C./60% RH, 1 mo): <LOQ
- DHOXYN (7,8-Dihydro-8,14-Dihydroxycodeinone) ([1]; 25° C./60% RH, 1 mo): 0.10%
- HOXY (14-Hydroxycodeinone) ([1]; 25° C./60% RH, 1 mo): 0.08%
- OXYE (Oxycodone ethylenolate) ([1]; 25° C./60% RH, 1 mo): <LOQ
- OXYN ([1]; 25° C./60% RH, 1 mo): <LOQ
- Other (impurities; Table 5: >0.05%) ([1]; 25° C./60% RH, 1 mo): <LOQ
- Total impurities ([1]; 25° C./60% RH, 1 mo): 0.18%
- Assay ([1]; 25° C./60% RH, 3 mo): 99.8%
- DHOXY (7,8-Dihydro-14-hydroxycodeine) ([1]; 25° C./60% RH, 3 mo): <LOQ
- DHOXYN (7,8-Dihydro-8,14-Dihydroxycodeinone) ([1]; 25° C./60% RH, 3 mo): 0.10%
- HOXY (14-Hydroxycodeinone) ([1]; 25° C./60% RH, 3 mo): 0.08%
- OXYE (Oxycodone ethylenolate) ([1]; 25° C./60% RH, 3 mo): <LOQ
- OXYN ([1]; 25° C./60% RH, 3 mo): <LOQ
- Other (impurities; Table 5: >0.05%) ([1]; 25° C./60% RH, 3 mo): <LOQ
- Total impurities ([1]; 25° C./60% RH, 3 mo): 0.18%
- 1-HydroxyOXY ([1]; 40° C./75% RH, 1 mo): <LOQ
- Assay ([1]; 40° C./75% RH, 1 mo): 99.6%
- DHOXY (7,8-Dihydro-14-hydroxycodeine) ([1]; 40° C./75% RH, 1 mo): <LOQ
- DHOXYN (7,8-Dihydro-8,14-Dihydroxycodeinone) ([1]; 40° C./75% RH, 1 mo): 0.10%
- HOXY (14-Hydroxycodeinone) ([1]; 40° C./75% RH, 1 mo): 0.08%
- OXYE (Oxycodone ethylenolate) ([1]; 40° C./75% RH, 1 mo): <LOQ
- OXYN ([1]; 40° C./75% RH, 1 mo): <LOQ
- Other (impurities; Table 5: >0.05%) ([1]; 40° C./75% RH, 1 mo): <LOQ
- Total impurities ([1]; 40° C./75% RH, 1 mo): 0.18%
- 1-HydroxyOXY ([1]; 40° C./75% RH, 3 mo): <LOQ
- Assay ([1]; 40° C./75% RH, 3 mo): 99.2%
- DHOXY (7,8-Dihydro-14-hydroxycodeine) ([1]; 40° C./75% RH, 3 mo): <LOQ
- DHOXYN (7,8-Dihydro-8,14-Dihydroxycodeinone) ([1]; 40° C./75% RH, 3 mo): 0.10%
- HOXY (14-Hydroxycodeinone) ([1]; 40° C./75% RH, 3 mo): 0.08%
- OXYE (Oxycodone ethylenolate) ([1]; 40° C./75% RH, 3 mo): <LOQ
- OXYN ([1]; 40° C./75% RH, 3 mo): <LOQ
- Other (impurities; Table 5: >0.05%) ([1]; 40° C./75% RH, 3 mo): <LOQ
- Total impurities ([1]; 40° C./75% RH, 3 mo): 0.18%
- 1-HydroxyOXY ([1]; Time 0): <LOQ
- Assay ([1]; Time 0): 100.7%
- DHOXY (7,8-Dihydro-14-hydroxycodeine) ([1]; Time 0): <LOQ
- DHOXYN (7,8-Dihydro-8,14-Dihydroxycodeinone) ([1]; Time 0): 0.10%
- HOXY (14-Hydroxycodeinone) ([1]; Time 0): 0.08%
- OXYE (Oxycodone ethylenolate) ([1]; Time 0): <LOQ
- OXYN ([1]; Time 0): <LOQ
- Other (impurities; Table 5: >0.05%) ([1]; Time 0): <LOQ
- Total impurities ([1]; Time 0): 0.18%
- Particle size (Dv90) ([2]; 25° C./60% RH, 3 months): 10 μ
- Particle size (Dv90) ([2]; 40° C./75% RH, 3 months): 10 μ
- Particle size (Dv90) ([2]; Time 0): 4 μ
- DSC Onset Melt ([3]; 25° C./60% RH, 3 mo): 221.8 °C
- DSC Onset Melt ([3]; 40° C./75% RH, 3 mo): 221.9 °C
- DSC Onset Melt ([3]; Time 0): 221.8 °C
- Microscopy, ≦10 μ ([4]; 25° C./60% RH, 3 mo): 99.5%
- Microscopy, ≦10 μ ([4]; 40° C./75% RH, 3 mo): 98.3%
- Microscopy, ≦10 μ ([4]; Time 0): 99.5%

Reference: US9339463B2, “Micronized opioid compositions having a specific particle size distribution” (priority 2007, dated 2016)
